# Assay results as given in the supplement of paper PMC10307832.
# Experiments:
# Assay in all cases: relative viability (nuclei count vs DMSO), 5 days (fraction); higher = more cells survive
# NCI-H2405 = tested on: NCI-H2405
# Procedure, shortened: (§1)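 After 5 days of treatment, lung cancer cells in 1536-well plates were fixed and stained in a single step (final 0.05% Triton X-100, 1% formaldehyde, 1 ug/ml Hoechst) and their nuclei counted on 4× images. Treatment had been applied by pin tool the day after seeding as one drug alone or as a fixed anchor-drug dose with five library-drug doses (not always all listed) in √10 steps. Relative viability is the nuclei count of treated wells divided by that of vehicle wells, and values are medians of duplicate plates.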
# NCI-H322M = tested on: NCI-H322M
# Procedure, shortened: as §1
# LXF-289 = tested on: LXF-289
# Procedure, shortened: as §1
# NCI-H2085 = tested on: NCI-H2085
# Procedure, shortened: as §1
# SK-LU-1 = tested on: SK-LU-1
# Procedure, shortened: as §1
# LOU-NH91 = tested on: LOU-NH91
# Procedure, shortened: as §1
# HCC-827 = tested on: HCC-827
# Procedure, shortened: as §1
# EPLC-272H = tested on: EPLC-272H
# Procedure, shortened: as §1
# NCI-H1975 = tested on: NCI-H1975
# Procedure, shortened: as §1
# NCI-H1666 = tested on: NCI-H1666
# Procedure, shortened: as §1
# SW 900 = tested on: SW 900
# Procedure, shortened: as §1
# NCI-H2126 = tested on: NCI-H2126
# Procedure, shortened: as §1
# LCLC-103H = tested on: LCLC-103H
# Procedure, shortened: as §1
# SW 1573 = tested on: SW 1573
# Procedure, shortened: as §1
# HCC-78 = tested on: HCC-78
# Procedure, shortened: as §1
# EMC-BAC-2 = tested on: EMC-BAC-2
# Procedure, shortened: as §1
# LU99A = tested on: LU99A
# Procedure, shortened: as §1
# NCI-H1563 = tested on: NCI-H1563
# Procedure, shortened: as §1
# LK-2 = tested on: LK-2
# Procedure, shortened: as §1
# ChaGo-K-1 = tested on: ChaGo-K-1
# Procedure, shortened: as §1
# NCI-H23 = tested on: NCI-H23
# Procedure, shortened: as §1
# NCI-H3122 = tested on: NCI-H3122
# Procedure, shortened: as §1
# RERF-LC-KJ = tested on: RERF-LC-KJ
# Procedure, shortened: as §1
smiles,measurement,setting,value
CC1(C)CCC(c2ccc(Cl)cc2)=C(CN2CCN(c3ccc(C(=O)NS(=O)(=O)c4ccc(N[C@H](CCN5CCOCC5)CSc5ccccc5)c(S(=O)(=O)C(F)(F)F)c4)cc3)CC2)C1 [Navitoclax] + COc1cc2c(Oc3ccc(NC(=O)C4(C(=O)Nc5ccc(F)cc5)CC4)cc3F)ccnc2cc1OCCCN1CCOCC1 [Foretinib] (partner 0.25 µM),relative viability,NCI-H2405; first compound 0.005 µM,1.04
same,relative viability,NCI-H2405; first compound 0.01581 µM,1.09
same,relative viability,NCI-H2405; first compound 0.05 µM,0.998
same,relative viability,NCI-H2405; first compound 0.1581 µM,1.04
same,relative viability,NCI-H2405; first compound 0.5 µM,1.05
same,relative viability,NCI-H322M; first compound 0.005 µM,1.03
same,relative viability,NCI-H322M; first compound 0.01581 µM,1.19
same,relative viability,NCI-H322M; first compound 0.05 µM,0.795
same,relative viability,NCI-H322M; first compound 0.1581 µM,0.992
same,relative viability,NCI-H322M; first compound 0.5 µM,1.1
same,relative viability,LXF-289; first compound 0.005 µM,1.05
same,relative viability,LXF-289; first compound 0.01581 µM,0.981
same,relative viability,LXF-289; first compound 0.05 µM,0.924
same,relative viability,LXF-289; first compound 0.1581 µM,0.93
same,relative viability,LXF-289; first compound 0.5 µM,0.966
same,relative viability,NCI-H2085; first compound 0.005 µM,0.92
same,relative viability,NCI-H2085; first compound 0.01581 µM,0.98
same,relative viability,NCI-H2085; first compound 0.05 µM,0.989
same,relative viability,NCI-H2085; first compound 0.1581 µM,0.863
same,relative viability,NCI-H2085; first compound 0.5 µM,0.836
same,relative viability,SK-LU-1; first compound 0.005 µM,0.928
same,relative viability,SK-LU-1; first compound 0.01581 µM,0.954
same,relative viability,SK-LU-1; first compound 0.05 µM,0.953
same,relative viability,SK-LU-1; first compound 0.1581 µM,0.772
same,relative viability,SK-LU-1; first compound 0.5 µM,0.741
same,relative viability,LOU-NH91; first compound 0.005 µM,0.955
same,relative viability,LOU-NH91; first compound 0.01581 µM,0.932
same,relative viability,LOU-NH91; first compound 0.05 µM,0.941
same,relative viability,LOU-NH91; first compound 0.1581 µM,0.911
same,relative viability,LOU-NH91; first compound 0.5 µM,0.824
same,relative viability,HCC-827; first compound 0.005 µM,0.914
same,relative viability,HCC-827; first compound 0.01581 µM,1.05
same,relative viability,HCC-827; first compound 0.05 µM,0.832
same,relative viability,HCC-827; first compound 0.1581 µM,1.03
same,relative viability,HCC-827; first compound 0.5 µM,1.01
same,relative viability,EPLC-272H; first compound 0.005 µM,0.707
same,relative viability,EPLC-272H; first compound 0.05 µM,0.766
same,relative viability,EPLC-272H; first compound 0.1581 µM,0.712
same,relative viability,EPLC-272H; first compound 0.5 µM,0.764
same,relative viability,NCI-H1975; first compound 0.005 µM,0.887
same,relative viability,NCI-H1975; first compound 0.01581 µM,1.03
same,relative viability,NCI-H1975; first compound 0.05 µM,1.03
same,relative viability,NCI-H1975; first compound 0.1581 µM,0.914
same,relative viability,NCI-H1975; first compound 0.5 µM,1.04
same,relative viability,NCI-H1666; first compound 0.005 µM,0.941
same,relative viability,NCI-H1666; first compound 0.01581 µM,1.04
same,relative viability,NCI-H1666; first compound 0.05 µM,0.965
same,relative viability,NCI-H1666; first compound 0.1581 µM,0.998
same,relative viability,NCI-H1666; first compound 0.5 µM,0.964
same,relative viability,SW 900; first compound 0.005 µM,0.857
same,relative viability,SW 900; first compound 0.01581 µM,1.04
same,relative viability,SW 900; first compound 0.05 µM,0.819
same,relative viability,SW 900; first compound 0.1581 µM,0.643
same,relative viability,SW 900; first compound 0.5 µM,0.85
same,relative viability,NCI-H2126; first compound 0.005 µM,1.25
same,relative viability,NCI-H2126; first compound 0.01581 µM,1.17
same,relative viability,NCI-H2126; first compound 0.1581 µM,1.14
same,relative viability,NCI-H2126; first compound 0.5 µM,1.19
same,relative viability,LCLC-103H; first compound 0.005 µM,0.676
same,relative viability,LCLC-103H; first compound 0.01581 µM,0.934
same,relative viability,LCLC-103H; first compound 0.05 µM,0.973
same,relative viability,LCLC-103H; first compound 0.1581 µM,0.832
same,relative viability,LCLC-103H; first compound 0.5 µM,0.81
same,relative viability,SW 1573; first compound 0.005 µM,1.06
same,relative viability,SW 1573; first compound 0.01581 µM,1
same,relative viability,SW 1573; first compound 0.05 µM,0.922
same,relative viability,SW 1573; first compound 0.1581 µM,1.02
same,relative viability,SW 1573; first compound 0.5 µM,1.04
same,relative viability,HCC-78; first compound 0.005 µM,0.596
same,relative viability,HCC-78; first compound 0.01581 µM,0.663
same,relative viability,HCC-78; first compound 0.1581 µM,0.591
same,relative viability,HCC-78; first compound 0.5 µM,0.595
same,relative viability,EMC-BAC-2; first compound 0.005 µM,1.07
same,relative viability,EMC-BAC-2; first compound 0.01581 µM,1.14
same,relative viability,EMC-BAC-2; first compound 0.05 µM,0.96
same,relative viability,EMC-BAC-2; first compound 0.1581 µM,1.01
same,relative viability,EMC-BAC-2; first compound 0.5 µM,1.05
same,relative viability,LU99A; first compound 0.005 µM,0.796
same,relative viability,LU99A; first compound 0.01581 µM,0.886
same,relative viability,LU99A; first compound 0.05 µM,0.459
same,relative viability,LU99A; first compound 0.1581 µM,0.804
same,relative viability,LU99A; first compound 0.5 µM,0.799
same,relative viability,NCI-H1563; first compound 0.005 µM,0.948
same,relative viability,NCI-H1563; first compound 0.01581 µM,0.967
same,relative viability,NCI-H1563; first compound 0.05 µM,0.856
same,relative viability,NCI-H1563; first compound 0.1581 µM,0.987
same,relative viability,NCI-H1563; first compound 0.5 µM,1.03
same,relative viability,LK-2; first compound 0.005 µM,1.22
same,relative viability,LK-2; first compound 0.01581 µM,1.15
same,relative viability,LK-2; first compound 0.05 µM,0.645
same,relative viability,LK-2; first compound 0.1581 µM,1.24
same,relative viability,LK-2; first compound 0.5 µM,1.08
same,relative viability,ChaGo-K-1; first compound 0.005 µM,1.04
same,relative viability,ChaGo-K-1; first compound 0.01581 µM,0.94
same,relative viability,ChaGo-K-1; first compound 0.05 µM,0.537
same,relative viability,ChaGo-K-1; first compound 0.1581 µM,0.9
same,relative viability,ChaGo-K-1; first compound 0.5 µM,0.932
same,relative viability,NCI-H23; first compound 0.005 µM,1.04
same,relative viability,NCI-H23; first compound 0.01581 µM,1.1
same,relative viability,NCI-H23; first compound 0.05 µM,1.08
same,relative viability,NCI-H23; first compound 0.1581 µM,0.768
same,relative viability,NCI-H23; first compound 0.5 µM,0.882
same,relative viability,NCI-H3122; first compound 0.005 µM,0.936
same,relative viability,NCI-H3122; first compound 0.01581 µM,1.04
same,relative viability,NCI-H3122; first compound 0.05 µM,0.964
same,relative viability,NCI-H3122; first compound 0.1581 µM,0.934
same,relative viability,NCI-H3122; first compound 0.5 µM,0.966
same,relative viability,RERF-LC-KJ; first compound 0.005 µM,0.841
same,relative viability,RERF-LC-KJ; first compound 0.01581 µM,0.896
same,relative viability,RERF-LC-KJ; first compound 0.05 µM,0.844
same,relative viability,RERF-LC-KJ; first compound 0.1581 µM,0.942
same,relative viability,RERF-LC-KJ; first compound 0.5 µM,0.849
